Measured values: patent US20230406831A1, “COMPOUNDS AND METHODS OF INHIBITING BACTERIAL CHAPERONIN SYSTEMS” (THE TRUSTEES OF INDIANA UNIVERSITY, priority 2020, published 2023)
Where two headings read alike, the source gives them in different places.

Columns and labels:
[1] = HEK 293 kidney cell viability / cytotoxicity assay (Alamar Blue); assay type: cell-based; conditions: human, 48 h incubation, Alamar Blue, read-out: HEK 293 Kidney Cell Viability CC50
Procedure: Evaluating compound effects on kidney cell viability.
HEK 293 cells were maintained in MEM medium (Corning Cellgro, 10-009 CV) supplemented with 10% FBS (Sigma, F2242). […] Cells at 80% confluence were harvested and diluted in growth medium, then 45 μL of the HEK 293 cells (1,500 cells/well) were dispensed per well, and plates were sealed with “Breathe Easy” oxygen permeable membranes (Diversified Biotech) and incubated at 37° C., 5% CO2, for 24 h. […] Plates were sealed with “Breathe Easy” oxygen permeable membranes and incubated for an additional 48 h at 37° C. and 5% CO2. The Alamar Blue reporter reagents were then added to a final concentration of 10%, the plates incubated at 37° C. and 5% CO2, and sample fluorescence (535 nm excitation, 590 nm emission) was read using a Molecular Devices FlexStation II 384-well plate reader (readings taken between 4-24 h of incubation so as to achieve signals in the 30-60% range for conversion of resazurin to resorufin). Cell viability was calculated as per vendor instructions (Thermo Fisher—Alamar Blue cell viability assay manual).

[2] = system: S. aureus; test: S. aureus bacterial proliferation assay; assay type: cell-based; conditions: for EC50: Staphylococcus aureus, read-out: S. aureus Proliferation EC50
Procedure: Evaluation of compounds for inhibition of bacterial cell proliferation.
Growth Media: S. aureus bacteria were grown in Brain Heart Infusion (BHI) broth/agar (Becton, Dickinson and Company). All liquid cultures were grown in BHI media supplemented with 25 mg/L Ca^2+ and 12.5 mg/L Mg^2+ to mimic free physiological concentrations of these cations. A 10 mg/mL Ca^2+ stock solution was prepared by dissolving 3.68 g of CaCl2·2H^2O in 100 mL of deionized water, and a 10 mg/mL Mg^2+ stock solution was prepared by dissolving 8.36 g of […] in 100 mL deionized water. Both stock solutions were filter-sterilized using 0.2 μm pore size cellulose-acetate filters. 2.5 mL of the sterile 10 mg/mL Ca^2+ stock and 1.25 mL of the sterile 10 mg/mL Mg^2+ stock solutions were added per 1 L of autoclaved BHI medium to obtain 25 mg/L Ca^2+ and 12.5 mg/L Mg^2+ ions, respectively.
General Assay Protocol: Stock bacterial cultures were streaked onto BHI agar plates and grown overnight at 37° C. Fresh aliquots of broth were inoculated with single bacterial colonies and the cultures were grown overnight at 37° C. with shaking (240 rpm) in cation adjusted BHI media. The following morning, the overnight cultures were sub-cultured (1:5 dilution) into fresh aliquots of cation adjusted BHI media and grown at 37° C. for 1-2 hours with shaking. After 2 h, cultures were diluted into fresh media to achieve final OD600 readings of 0.017. Aliquots of these diluted cultures (30 μL) were added to clear, flat-bottom, 384-well polystyrene plates that were stamped with 0.5 μL of test compounds in 20 μL media. Compounds were evaluated in dose-response format where the inhibitor concentration range during the proliferation assay was 100 μM to 46 nM (3-fold dilution series). Plates were sealed with “Breathe Easy” oxygen permeable membranes (Diversified Biotech) and left to incubate at 37° C. without shaking (stagnant assay). OD600 nm readings were taken generally at 6-8 h, when bacteria had reached log-phase growth. A second set of baseline control plates were prepared analogously, but without any bacteria added, to correct for possible compound absorbance and/or precipitation. Plates were then read at 600 nm using a Molecular Devices SpectraMax Plus384 microplate reader. EC50 values for the test compounds were obtained by plotting the OD600 results in GraphPad Prism and analyzing by non-linear regression using the log(inhibitor) vs. response (variable slope) equation. For results, see Tables 1, 2, and 3.

[3] = Table 2, cation adjusted BHI media, OD600 at 6-8 h
[4] = Table 3, cation adjusted BHI media, OD600 at 6-8 h

| SMILES | S. aureus Proliferation EC50 [2, 3] | CC50 at 48 h ([1]; HEK 293 kidney cells, Table 3) | EC50 [2, 4] | also measured |
| --- | --- | --- | --- | --- |
| COc1ccccc1C(=O)Nc1cc(Cl)c(C(C#N)c2ccc(Cl)cc2)cc1C (stereo not drawn) [Compound 61, N-(5-chloro-4-((4-chlorophenyl)(cyano)methyl)-2-methylphenyl)-2-methoxybenzamide] | > 100 µM |  |  | CC50 at 48 h ([1]; HEK 293 kidney cells, Table 2): > 100 µM |
| COc1ccc(C)cc1C(=O)Nc1cc(Cl)c(C(C#N)c2ccc(Cl)cc2)cc1C (stereo not drawn) [Compound 59, N-(5-chloro-4-((4-chlorophenyl)(cyano)methyl)-2-methylphenyl)-2-methoxy-5-methylbenzamide] | > 100 µM |  |  | CC50 at 48 h ([1]; Table 2): 32 µM |
| COc1ccc(Cl)cc1C(=O)Nc1ccc(Sc2nc3ccccc3s2)c(Cl)c1 [Compound 94, N-(4-(benzo[d]thiazol-2-ylthio)-3-chlorophenyl)-5-chloro-2-methoxybenzamide] |  | > 100 µM | > 100000 nM |  |
| Cc1cc(C(C#N)c2ccc(Cl)cc2)c(Cl)cc1NC(=O)c1ccccc1N (stereo not drawn) [Compound 70, 2-amino-N-(5-chloro-4-((4-chlorophenyl)(cyano)methyl)-2-methylphenyl)benzamide] | > 100 µM |  |  | CC50 at 48 h ([1]; HEK 293 kidney cells, Table 2): 32 µM |
| Cc1cc(C(C#N)c2ccc(Cl)cc2)c(Cl)cc1NC(=O)c1ccccc1O (stereo not drawn) [Compound 64, N-(5-chloro-4-((4-chlorophenyl)(cyano)methyl)-2-methylphenyl)-2-hydroxybenzamide] |  |  |  | CC50 at 48 h ([1]; Table 2): 26 µM; EC50 [2]: 280 nM |
| COc1ccc(Cl)cc1C(=O)Nc1ccc(Oc2ccccc2)cc1 [Compound 92, 5-chloro-2-methoxy-N-(4-phenoxyphenyl)benzamide] |  | > 100 µM | > 100000 nM |  |
| COc1ccc(Cl)cc1C(=O)Nc1ccc(CCc2ccccc2)cc1 [Compound 100, 5-chloro-2-methoxy-N-(4-phenethylphenyl)benzamide] |  | > 100 µM | > 100000 nM |  |
| O=C(Nc1ccc(Oc2ccc(Cl)cc2)c(Cl)c1)c1cc(I)cc(I)c1O [Rafoxanide, reference compound] |  |  |  | CC50 at 48 h ([1]; Table 1): 82 µM; EC50 [2]: 300 nM |
| Cc1cc(C(C#N)c2ccc(Cl)cc2)c(Cl)cc1NC(=O)c1cccc(Cl)c1 (stereo not drawn) [Compound 77, 3-chloro-N-(5-chloro-4-((4-chlorophenyl)(cyano)methyl)-2-methylphenyl)benzamide] | > 100 µM |  |  | CC50 at 48 h ([1]; HEK 293 kidney cells, Table 2): > 100 µM |
| Cc1cc(C(C#N)c2ccc(Cl)cc2)c(Cl)cc1NC(=O)c1cccc(Br)c1O (stereo not drawn) [Compound 48, 3-bromo-N-(5-chloro-4-((4-chlorophenyl)(cyano)methyl)-2-methylphenyl)-2-hydroxybenzamide] |  |  |  | CC50 at 48 h ([1]; Table 2): 43 µM; EC50 [2, 3]: 580 nM |
| Cc1cc(C(C#N)c2ccc(Cl)cc2)c(Cl)cc1NC(=O)c1cccc(F)c1 (stereo not drawn) [Compound 80, N-(5-chloro-4-((4-chlorophenyl)(cyano)methyl)-2-methylphenyl)-3-fluorobenzamide] | > 100 µM |  |  | CC50 at 48 h ([1]; HEK 293 kidney cells, Table 2): 70 µM |
| COc1ccc(NC(=O)c2cc(Cl)ccc2O)cc1 [Compound 113, 5-chloro-2-hydroxy-N-(4-methoxyphenyl)benzamide] |  | 19 µM | 31000 nM |  |
| Cc1cc(C(C#N)c2ccc(Cl)cc2)c(Cl)cc1NC(=O)c1ccc(O)cc1 (stereo not drawn) [Compound 66, N-(5-chloro-4-((4-chlorophenyl)(cyano)methyl)-2-methylphenyl)-4-hydroxybenzamide] | 4.9 µM |  |  | CC50 at 48 h ([1]; HEK 293 kidney cells, Table 2): 65 µM |
| COC(=O)c1ccc(NC(=O)c2cc(Cl)ccc2OC)cc1 [Compound 106, methyl 4-(5-chloro-2-methoxybenzamido)benzoate] |  | 24 µM | > 100000 nM |  |
| COc1ccc(Cl)cc1C(=O)Nc1ccc(CC#N)cc1 [Compound 110, 5-chloro-N-(4-(cyanomethyl)phenyl)-2-methoxybenzamide] |  | > 100 µM | > 100000 nM |  |
| O=C(Nc1cc(Cl)cc(Cl)c1O)c1c(O)c(Cl)cc(Cl)c1Cl [Oxyclosanide, reference compound] |  |  |  | CC50 at 48 h ([1]; HEK 293 kidney cells, Table 1): 30 µM; EC50 ([2]; Table 1, cation adjusted BHI media, OD600 at 6-8 h): 520 nM |
| Cc1cc(C(C#N)c2ccc(Cl)cc2)c(Cl)cc1NC(=O)c1cc(Br)cc(Br)c1O (stereo not drawn) [Compound 46, 3,5-dibromo-N-(5-chloro-4-((4-chlorophenyl)(cyano)methyl)-2-methylphenyl)-2-hydroxybenzamide] |  |  |  | CC50 at 48 h ([1]; Table 2): 58 µM; EC50 [2, 3]: 220 nM |
| COc1ccc(C(=O)Nc2cc(Cl)c(C(C#N)c3ccc(Cl)cc3)cc2C)cc1 (stereo not drawn) [Compound 63, N-(5-chloro-4-((4-chlorophenyl)(cyano)methyl)-2-methylphenyl)-4-methoxybenzamide] | > 100 µM |  |  | CC50 at 48 h ([1]; HEK 293 kidney cells, Table 2): > 100 µM |
| COc1ccc(Cl)cc1C(=O)Nc1ccc(Cc2ccccc2)cc1 [Compound 98, N-(4-benzylphenyl)-5-chloro-2-methoxybenzamide] |  | > 100 µM | > 100000 nM |  |
| COc1ccc(Cl)cc1C(=O)Nc1cc(Cl)c(C(C#N)c2ccc(Cl)cc2)cc1C (stereo not drawn) [Compound 57, 5-chloro-N-(5-chloro-4-((4-chlorophenyl)(cyano)methyl)-2-methylphenyl)-2-methoxybenzamide] | > 100 µM |  | > 100000 nM | CC50 at 48 h ([1]; Table 2): 28 µM |
| Cc1cc(C(C#N)c2ccc(Cl)cc2)c(Cl)cc1NC(=O)c1cc(Cl)ccc1O (stereo not drawn) [Compound 58, 5-chloro-N-(5-chloro-4-((4-chlorophenyl)(cyano)methyl)-2-methylphenyl)-2-hydroxybenzamide] |  |  |  | CC50 at 48 h ([1]; Table 2): 11 µM; EC50 [2]: 140 nM |
| COc1c(Br)cccc1C(=O)Nc1cc(Cl)c(C(C#N)c2ccc(Cl)cc2)cc1C (stereo not drawn) [Compound 47, 3-bromo-N-(5-chloro-4-((4-chlorophenyl)(cyano)methyl)-2-methylphenyl)-2-methoxybenzamide] | > 100 µM |  |  | CC50 at 48 h ([1]; Table 2): > 100 µM |
| N#CC(c1ccccc1)c1ccc(NC(=O)c2cc(Cl)ccc2O)cc1 (stereo not drawn) [Compound 85, 5-chloro-N-(4-(cyano(phenyl)methyl)phenyl)-2-hydroxybenzamide] |  | 29 µM | 1100 nM |  |
| O=C(Nc1ccc(Sc2nc3ccccc3s2)cc1)c1cc(Cl)ccc1O [Compound 97, N-(4-(benzo[d]thiazol-2-ylthio)phenyl)-5-chloro-2-hydroxybenzamide] |  | 28 µM | 100 nM |  |
| COc1ccc(Cl)cc1C(=O)Nc1ccc(NC(C)=O)cc1 [Compound 104, N-(4-acetamidophenyl)-5-chloro-2-methoxybenzamide] |  | > 100 µM | > 100000 nM |  |
| COc1ccc(Cl)cc1C(=O)Nc1ccc(OCc2ccccc2)cc1 [Compound 102, N-(4-(benzyloxy)phenyl)-5-chloro-2-methoxybenzamide] |  | > 100 µM | > 100000 nM |  |
| COc1cccc(C(=O)Nc2cc(Cl)c(C(C#N)c3ccc(Cl)cc3)cc2C)c1 (stereo not drawn) [Compound 62, N-(5-chloro-4-((4-chlorophenyl)(cyano)methyl)-2-methylphenyl)-3-methoxybenzamide] | > 100 µM |  |  | CC50 at 48 h ([1]; HEK 293 kidney cells, Table 2): 50 µM |
| Cc1cc(C(C#N)c2ccc(Cl)cc2)c(Cl)cc1NC(=O)c1ccccc1[N+](=O)[O-] (stereo not drawn) [Compound 67, N-(5-chloro-4-((4-chlorophenyl)(cyano)methyl)-2-methylphenyl)-2-nitrobenzamide] | > 100 µM |  |  | CC50 at 48 h ([1]; HEK 293 kidney cells, Table 2): > 100 µM |
